Laboratory results reported in patent US6391873B1, “Imidazodiazepine derivative” (priority 1999, dated 2002).

Legend:
[1] = system: mice; assay: tolerance of the anxiolytic effect in mice after chronic treatment
[2] = system: mice; assay: withdrawal signs in chronically treated mice challenged with a benzodiazepine receptor antagonist; details: chronically treated mice challenged with benzodiazepine receptor antagonist (e.g., sarmazenil)
[3] = system: rats; assay: cognitive impairment in rats
[4] = system: cytochrome P450 isoenzymes; assay: inhibition of cytochrome P450 isoenzymes
[5] = biological target: benzodiazepine receptors; assay: 3H-flumazenil in vitro binding assay using homogenized rat cortex; details: inhibition of binding of tritiated flumazenil
Description: The preclinical pharmacological profile of the compound of the present invention for treatment of anxiety disorders, and/or treatment of convulsions and/or non-sedative treatment of sleep disorders involves no, or only minimal motor impairment, in a standard test of motor performance in animals (e.g. rotarod test in mice with motor function evaluated in the same animals at different time points up to 1 hour after intravenous injection).
The affinity of the compound of the invention to the central benzodiazepine receptors was established in vitro according to the methods described in Nature 294, 763-765 (1981) and J. Neurochemistry 37, 714-722 (1981). According to these methods, the inhibition of the binding of tritiated flumazenil to the specific benzodiazepine receptors in the cortex of rats by the respective test substance is determined. The affinity was calculated as pKi (for background information on pKi see: Cheng, Y. and W. H. Prusoff, Relationship between the inhibition constant (Ki) and the concentration of inhibitor which causes 50 percent inhibition (IC50) of an enzymatic reaction. Biochem. Pharmac. 22: 3099-3108, 1973) as the measure of the specific binding of tritiated flumazenil to specific benzodiazepine receptors in the cortex of rat.

[6] = system: mice; assay: rotating rod test (rotarod test), motor impairment; type: in vivo, mouse; details: for ED50 for a rotarod deficit: consistently at different time points up to 1 hour after intravenous injection
Description: The motor impairing properties of the compound of the invention can be determined, for example, in the rotating rod test (rotarod test). […] These mice were housed in Macrolon® type I cages for one or more days following arrival in the laboratory colony (12:12 hour light-dark cycle). They have free access to a standard rodent diet (Kliba Mühlen, Kaiseraugst, Switzerland) and tap water in the home cage up to testing. They are brought into the test laboratory at least 30 min before the test which was done during the light portion of the day-night cycle. In the rotating rod test the animals are placed on a horizontally arranged, smooth metal rod having a diameter of 3 cm, which is rotated at 2 revolutions per min. Initially, the animals are given the opportunity of familiarizing themselves with the test situation for at least 30 sec. Subsequently, those animals which succeed in remaining on the rod for at least 1 min are selected for use in the test. These selected animals are then given the test preparations intravenously in different dosages. At various points in time post-injection, it is then determined whether the animals are able to remain wallking on the rod for a minimum period (minimum period of 10 sec at time points 15 sec. 30 sec. 1 min and 2 min; minimum period of 1 min at time points 5 min, 15 min, 30 min, 60 min). The dosage at which 50% of the animals are capable of remaining on the rod (i.e., ED50) was determined at each of these time points.

[7] = system: animals; assay: anticonvulsant effects in animals; type: in vivo; details: low doses
[8] = system: mice; assay: mouse operant conflict model of anxiety; details: oral bolus circa 30 min prior to conflict test; punished responding
[9] = system: mice; assay: fatalities after i.v. administration in mice (rotarod test); type: in vivo, mouse; details: up to 100 mg/kg i.v.
[10] = system: mice; assay: ethanol interaction in mice
[11] = system: rats; assay: fatalities after i.v. administration in rats; type: in vivo; details: 100 mg/kg i.v.

In the case of `CN(C)Cc1nc(-c2ncn3c2CN(C)C(=O)c2c(Cl)cccc2-3)no1` [compound of the invention, 7-Chloro-3-(5-dimethylaminomethyl-[1,2,4]oxadiazol-3-yl)-5-methyl-4,5-dihydro-imidazo[1,5-a][1,4]benzodiazepin-6-one], the “reduction (so-called tolerance) of the anxiolytic effect” value [1] is reported as “minimal reduction”, the withdrawal signs [2] is reported as “minimal withdrawal signs” and the cognitive impairment [3] is reported as “minimal cognitive impairment”. The “inhibition of cytochrome P450 isoenzymes” value [4] was “minimal or no inhibition”, the “Affinity to benzodiazepine receptors” value [5] was 9.1 and the “Rotating rod test ED50” value ([6]; 15 sec after administration) was >10 mg/kg i.v. The “Rotating rod test ED50” value ([6]; 20 sec after administration) was >10 mg/kg i.v, the “Rotating rod test ED50” value ([6]; 60 sec after administration) was >10 mg/kg i.v and the “Rotating rod test ED50” value ([6]; 2 min after administration) was >10 mg/kg i.v. The “Rotating rod test ED50” value ([6]; 5 min after administration) was >10 mg/kg i.v, the “Rotating rod test ED50” value ([6]; 15 min after administration) was >10 mg/kg i.v and the “Rotating rod test ED50” value ([6]; 30 min after administration) was >10 mg/kg i.v. For the same compound, the “Rotating rod test ED50” value ([6]; 60 min after administration) was >10 mg/kg i.v, the “ED50 for a rotarod deficit” value [6] was > 10 mg/kg i.v and the “ED50 for a rotarod deficit” value ([6]; listed as compound of the present invention) was “greater than 10 mg/kg i.v”. The anticonvulsant effects [7] was “show anticonvulsant effects”, the “minimum effective dose (statistically significant anxiolytic-like effect)” value [8] was 3 mg/kg p.o and the fatalities [9] was “without fatalities occurring”. For the same compound, the ethanol interaction [10] was “low ethanol interaction” and the fatalities [11] was “without fatalities occurring”.
